Measured values: patent EP2348131A1, “Low levels of cytidine deaminase as a marker for genetic predisposition to develop cancer” (Institut Curie, priority 2010, dated 2011)

How the values were obtained:
[1] = tested on: BS cells; assay: Sister chromatid exchange assay in BS cells cultured with deoxynucleosides; assay type: cell-based, human; conditions: BS cells (BS-GFP), 25 µM dU or T in culture medium, 2 x 48 h
Protocol: The BS SV40-transformed fibroblast cell line GM08505B was cultured as previously described (Dutertre S et al., Oncogene 19, 2731-8, 2000). BS-GFP-BLM cells were obtained by transfecting BS GM08505B cells with an empty EGFP-C1 vector (Clontech, Mountain View, CA), or a EGFP-C1 vector containing the full length BLM cDNA (Eladad et al., Hum Mol Genet 14, 1351-65, 2005), respectively, using JetPEI reagent (Ozyme). After 48 hr, selection with 800 to 1600 µg/ml of G418 (Invitrogen) was applied. Individual colonies were isolated and maintained in DMEM supplemented with 800 µg/ml G418.
All cell lines were cultured in DMEM with 10% fetal calf serum (PAN laboratories) either not dialyzed (Lot P282710) or dialyzed (Lot P5940309) for nucleoside complementation experiments and dNTP assays. […]
After treatment, cells were transferred to slides and cultured in the presence of 10 µM 5-bromodeoxyuridine (Sigma) at 37°C, under an atmosphere containing 5% CO2. After 40 hours, Colchicine (Sigma) was added to a final concentration of 0.1 µg/ ml for 1 hour. Cells were incubated in hypotonic solution (1:6 (vol/vol) FCS-distilled water) and fixed with 3:1 (vol/vol) methanol-acetic acid. […] Metaphases were captured with a SONY DXC 930 P camera and SCEs or chromosomal aberrations were analyzed.

[2] = tested on: BLM-complemented BS cells; assay: Sister chromatid exchange assay in BLM-complemented BS cells; assay type: cell-based, human; conditions: BLM-complemented BS cells (BS-GFP-BLM), 25 mM dU or T in culture medium, 2 x 48 h
Protocol: HeLa cells were used, as previously described (Dutertre S et al., Oncogene 19, 2731-8, 2000). HEK293 cells were cultured as HeLa cells. HeLaV cells and HeLashBLM cells, HEK293V and HEK293shBLM were obtained by transfecting HeLa and HEK cells with an empty pSM2 vector or a pSM2 vector encoding a short hairpin RNA sequence directed against BLM (Open Biosystems, clone V2HS-89234), respectively, using JetPEI reagent (Ozyme) according to the manufacturer's instructions. After 48 hours, selection with 1 to 5 µg/ ml puromycin (Invivogen) was applied for HeLa cells and with 7 to12 µg/ml puromycin for HEK cells. Individual colonies were isolated and maintained in growth medium containing 0.5 µg/ ml puromycin for Hela cells or 10µg/ml puromycin for HEK cells. For siRNAs transient transfection assays, 3-4 x 10^5 cells were seeded in 3 ml of medium in each well of a six-well plate. […]
After treatment, cells were transferred to slides and cultured in the presence of 10 µM 5-bromodeoxyuridine (Sigma) at 37°C, under an atmosphere containing 5% CO2. […] Metaphases were captured with a SONY DXC 930 P camera and SCEs or chromosomal aberrations were analyzed.

Row | Structure (SMILES) | SCEs frequency [1] | SCEs frequency [2]
1 | Cc1cn([C@H]2C[C@H](O)[C@@H](CO)O2)c(=O)[nH]c1=O [T, thymidine] | significant decrease | did not affect
2 | O=c1ccn([C@H]2C[C@H](O)[C@@H](CO)O2)c(=O)[nH]1 [dU, deoxyuridine] | significant decrease | did not affect
